Laboratory results taken from publication PMC3532596, “Cell-based optimization of novel benzamides as potential antimalarial leads” (Bioorganic & Medicinal Chemistry Letters, 2009).
Converted amounts (≈) assume the structure as drawn.

Legend:
P. falciparum 3D7 strain = assay: cell-based P. falciparum proliferation assay, 3D7 strain; settings: Plasmodium falciparum; chloroquine sensitive 3D7 strain; means of two experiments
Excerpt: (§1) Currently there is a need for novel chemical scaffolds with different mechanisms of action, since most of the current approved antimalarial drugs belong to the aminoquinoline family. In order to find new chemical scaffolds, we initiated a compound screen using our in-house kinase inhibitor collection and subjected them to a cell-based of Plasmodium falciparum proliferation assay[5,6] We envisioned that the hits arising from this screen can be rapidly optimized by leveraging our past experiences with these compounds series in alternative target-classes/indications. Furthermore, we thought that it would be prudent to remove the human kinase activity early on during the compound optimization phase to negate the possibility of toxicity arising from host-related off-target activities (Scheme 1).

Huh7 = type: cell-based; settings: human
Excerpt: (§2) Compound 32 was profiled in an extended panel of 15 drug resistant strains (Table 5) and against a 6-cell line toxicity panel.

CHO = type: cell-based; settings: Chinese hamster
Excerpt: as §2

HeLa = type: cell-based; settings: human
Excerpt: as §2

Ba/F3 = type: cell-based; settings: mouse
Excerpt: as §2

293T = type: cell-based; settings: human
Excerpt: as §2

HEp2 = type: cell-based; settings: human
Excerpt: as §2

P. falciparum W2 strain = assay: cell-based P. falciparum proliferation assay, W2 strain; parameters: species or system Plasmodium falciparum; settings: for EC50: Plasmodium falciparum, W2, read-out: P. falciparum W2 strain EC50
Excerpt: as §1
One important aspect of antimalarial drug discovery is to identify agents that are active against the drug-resistant parasites. […] While most of these resistance phenotypes are due to point mutations in the drug target, the W2 strain also contains an amplification of the P. falciparum multidrug resistance transporter.[10]

[1] = HT-thermodynamic solubility; type: physicochemical; settings: pH 6.8; pH6.8, free base; preliminary
Excerpt: (§3) We also performed preliminary solubility and metabolic stability measurements on compound 32.

P. falciparum strain D6 = assay: P. falciparum proliferation assay, D6 strain; type: cell-based; settings: Plasmodium falciparum
Excerpt: as §1, §2

[2] = system: P. falciparum strain 3BAG; assay: P. falciparum proliferation assay, 3BAG strain; type: cell-based; settings: Plasmodium falciparum
Excerpt: as §1, §2

[3] = system: P. falciparum strain Camp R; assay: P. falciparum proliferation assay, Camp R strain; type: cell-based; settings: Plasmodium falciparum
Excerpt: as §1, §2

P. falciparum strain FCB = assay: P. falciparum proliferation assay, FCB strain; type: cell-based; settings: Plasmodium falciparum
Excerpt: as §1, §2

P. falciparum strain 7G8 = assay: P. falciparum proliferation assay, 7G8 strain; type: cell-based; settings: Plasmodium falciparum
Excerpt: as §1, §2

[4] = snapshot PK in mice, single oral dose; type: in vivo; settings: mice balb/c, 20 mg/kg orally, PEG300/D5W 3:1 solution, free base; for AUC(0-t) / Cmax at 5 h / Tmax at 5 h: mouse, in vivo, po
Method: Mice were dosed a single dose of 20 mg/kg orally and their exposure levels were monitored over a period of 5 h and results are summarized in Table 6.[11]
[11] Snapshot PK is developed and used by GNF pharmacology group as a rapid pharmacokinetic screening approach. The pharmacokinetic parameters of the compounds are studied in a single mode of administration (generally PO arm) over a period of 5 h. The study is carried out on two animals and the samples are pooled together at each time point. This high throughput approach offers exposure levels with reasonable confidence without committing to extensive resources. For details, see: Liu, B.; Chang, J.; Gordon, W. P.; Isbell, J.; Zhou, Yi.; Tuntland, T. Drug Discovery Today2008, 13, 360–367.

[5] = system: P. falciparum strain NF54; assay: P. falciparum proliferation assay, NF54 strain; type: cell-based; settings: Plasmodium falciparum
Excerpt: as §1, §2

P. falciparum strain D10 = assay: P. falciparum proliferation assay, D10 strain; type: cell-based; settings: Plasmodium falciparum
Excerpt: as §1, §2

[6] = system: P. falciparum strain TM91C235; assay: P. falciparum proliferation assay, TM91C235 strain; type: cell-based; settings: Plasmodium falciparum
Excerpt: as §1, §2

P. falciparum strain Dd2 = assay: P. falciparum proliferation assay, Dd2 strain; type: cell-based; settings: Plasmodium falciparum
Excerpt: as §1, §2

15 P. falciparum strains = assay: extended panel of 15 drug resistant strains; type: cell-based, Plasmodium falciparum; settings: 15 strains, potencies relative to each other
Excerpt: as §2

[7] = 6-cell line toxicity panel, selectivity index; type: cell-based; settings: cytotoxicity TC50 vs antiplasmodial potency; read-out: selectivity index (SI)
Excerpt: as §2

[8] = system: P. falciparum strain FCR3; assay: P. falciparum proliferation assay, FCR3 strain; type: cell-based; settings: Plasmodium falciparum
Excerpt: as §1, §2

[9] = system: P. falciparum strain C188; assay: P. falciparum proliferation assay, C188 strain; type: cell-based; settings: Plasmodium falciparum
Excerpt: as §1, §2

[10] = metabolic stability in mouse microsomes; type: in vitro ADME; settings: preliminary
Excerpt: as §3

P. falciparum strain K1 = assay: P. falciparum proliferation assay, K1 strain; type: cell-based; settings: Plasmodium falciparum
Excerpt: as §1, §2

P. falciparum strain HB3 = assay: P. falciparum proliferation assay, HB3 strain; type: cell-based; settings: Plasmodium falciparum
Excerpt: as §1, §2

O=C(Nc1cccc(C(F)(F)F)c1)Nc1cc(N2CCC(N3CCCC3)CC2)cc(C(F)(F)F)c1 [Compound 18]
EC50 (P. falciparum 3D7 strain): 0.452 µM

O=C(NC1(c2cccc(C(F)(F)F)c2)CC1)c1cc(N2CCC(N3CCCC3)CC2)cc(C(F)(F)F)c1 [Compound 23]
EC50 (P. falciparum 3D7 strain): 0.423 µM

CC1CCN(C2CCN(c3cc(C(=O)Nc4cccc(Cl)c4)cc(C(F)(F)F)c3)CC2)CC1 [Compound 32]
cytotoxicity TC50 (Huh7): greater than 8 μM | cytotoxicity TC50 (CHO): greater than 8 μM | cytotoxicity TC50 (HeLa): greater than 8 μM | cytotoxicity TC50 (Ba/F3): greater than 8 μM | cytotoxicity TC50 (293T): greater than 8 μM | cytotoxicity TC50 (HEp2): greater than 8 μM | EC50 (P. falciparum W2 strain): 0.323 µM | solubility thermodynamic [1]: 0.026 mg/mL (≈ 54.2 µM) | EC50 (P. falciparum 3D7 strain): 0.14 µM | EC50 (P. falciparum strain D6): 0.081 µM | EC50 [2]: 0.268 µM | EC50 [3]: 0.138 µM | EC50 (P. falciparum strain FCB): 0.306 µM | EC50 (P. falciparum strain 7G8): 0.309 µM | AUC(0–5h)/dose [4]: 11.42 (min ug/mL)/(mg/kg) | AUC(0-t) [4]: 7.93 µM·h | Cmax at 5 h [4]: 2.28 µM | Tmax at 5 h [4]: 5 h | EC50 [5]: 0.104 µM | EC50 (P. falciparum strain D10): 0.094 µM | EC50 [6]: 0.12 µM | EC50 (P. falciparum strain Dd2): 0.141 µM | spread of potencies across the strain panel (15 P. falciparum strains): ≤ 3 fold | selectivity ratio [7]: > 20 | EC50 [8]: 0.218 µM | EC50 [9]: 0.083 µM | extraction ratio [10]: 0.383 ± 0.04 | microsomal CLint [10]: 21.4 µL/min/mg | EC50 (P. falciparum strain K1): 0.15 µM | EC50 (P. falciparum strain HB3): 0.146 µM

CN(C(=O)c1cc(N2CCC(N3CCCC3)CC2)cc(C(F)(F)F)c1)c1cccc(Cl)c1 [Compound 17]
EC50 (P. falciparum 3D7 strain): 4.68 µM

CCCNC(=O)c1cc(N2CCC(N3CCCC3)CC2)cc(C(F)(F)F)c1 [Compound 4]
EC50 (P. falciparum 3D7 strain): 6.48 µM

O=C(Nc1cccc(C(F)(F)F)c1)c1cc(N2CCc3ccccc3C2)cc(C(F)(F)F)c1 [Compound 35]
EC50 (P. falciparum W2 strain): 0.635 µM | EC50 (P. falciparum 3D7 strain): 0.175 µM | AUC(0–5h)/dose [4]: 2.33 (min ug/mL)/(mg/kg) | AUC(0-t) [4]: 1.67 µM·h | Cmax at 5 h [4]: 0.672 µM | Tmax at 5 h [4]: 0.5 h

O=C(Nc1ccncn1)c1cc(N2CCC(N3CCCC3)CC2)cc(C(F)(F)F)c1 [Compound 5]
EC50 (P. falciparum 3D7 strain): 2.16 µM

O=C(Nc1cccc(Cl)c1)c1cccc(N2CCC(N3CCCC3)CC2)c1 [Compound 25]
EC50 (P. falciparum 3D7 strain): 5.88 µM

O=C(NCc1cccc(C(F)(F)F)c1)c1cc(N2CCC(N3CCCC3)CC2)cc(C(F)(F)F)c1 [Compound 22]
EC50 (P. falciparum 3D7 strain): 0.734 µM

O=S(=O)(Nc1cc(N2CCC(N3CCCC3)CC2)cc(C(F)(F)F)c1)c1cccc(C(F)(F)F)c1 [Compound 16]
EC50 (P. falciparum 3D7 strain): 8.25 µM

FC(F)(F)c1cccc(Nc2cc(N3CCC(N4CCCC4)CC3)cc(C(F)(F)F)c2)c1 [Compound 21]
EC50 (P. falciparum 3D7 strain): 0.638 µM

O=C(Nc1cccc(C(F)(F)F)c1)c1cc(N2CCC(N3CCCCC3=O)CC2)cc(C(F)(F)F)c1 [Compound 33]
EC50 (P. falciparum W2 strain): 1.41 µM | EC50 (P. falciparum 3D7 strain): 1.49 µM

O=C(Nc1cccc(Cl)c1)Nc1cc(N2CCC(N3CCCC3)CC2)cc(C(F)(F)F)c1 [Compound 19]
EC50 (P. falciparum 3D7 strain): 0.328 µM

N#Cc1cccc(NC(=O)c2cc(N3CCC(N4CCCC4)CC3)cc(C(F)(F)F)c2)c1 [Compound 9]
EC50 (P. falciparum 3D7 strain): 0.146 µM

O=C(Nc1ccccc1Cl)c1cc(N2CCC(N3CCCC3)CC2)cc(C(F)(F)F)c1 [Compound 6]
EC50 (P. falciparum 3D7 strain): 1.72 µM

O=C(Nc1cc(Cl)cc(Cl)c1)c1cc(N2CCC(N3CCCC3)CC2)cc(C(F)(F)F)c1 [Compound 13]
EC50 (P. falciparum 3D7 strain): 0.048 µM | AUC(0–5h)/dose [4]: 7.01 (min ug/mL)/(mg/kg) | AUC(0-t) [4]: 4.81 µM·h | Cmax at 5 h [4]: 1.64 µM | Tmax at 5 h [4]: 5 h

O=C(Nc1cccc(C(F)(F)F)c1)c1cc(N2CCC(N3CCCCC3)CC2)cc(C(F)(F)F)c1 [Compound 31]
EC50 (P. falciparum W2 strain): 0.299 µM | EC50 (P. falciparum 3D7 strain): 0.149 µM

O=C(Nc1cccc(Cl)c1)c1cc(F)cc(N2CCC(N3CCCC3)CC2)c1 [Compound 24]
EC50 (P. falciparum 3D7 strain): 0.766 µM

Cc1cc(C(=O)Nc2cccc(Cl)c2)nc(N2CCC(N3CCCC3)CC2)n1 [Compound 28]
EC50 (P. falciparum 3D7 strain): 2.98 µM

CC1CCCN(C2CCN(c3cc(C(=O)Nc4cccc(C(F)(F)F)c4)cc(C(F)(F)F)c3)CC2)C1 (stereo not shown) [Compound 34]
EC50 (P. falciparum W2 strain): 0.211 µM | EC50 (P. falciparum 3D7 strain): 0.058 µM

O=C(Nc1cccc(C(F)(F)F)c1)c1cc(N2CCC(N3CCCC3)CC2)cc(C(F)(F)F)c1 [Compound 10]
EC50 (P. falciparum 3D7 strain): 0.174 µM

O=C(Nc1cccc(Cl)c1)c1cc(C(F)(F)F)nc(N2CCC(N3CCCC3)CC2)n1 [Compound 27]
EC50 (P. falciparum 3D7 strain): 1.67 µM

O=C(Nc1cccc(Cl)c1)c1ccnc(N2CCC(N3CCCC3)CC2)c1 [Compound 26]
EC50 (P. falciparum 3D7 strain): 0.674 µM

O=C(Nc1ccc(Br)c(Cl)c1)c1cc(N2CCC(N3CCCC3)CC2)cc(C(F)(F)F)c1 [Compound 12]
EC50 (P. falciparum 3D7 strain): 0.098 µM

O=C(Nc1ccc(Cl)c(Cl)c1)c1cc(N2CCC(N3CCCC3)CC2)cc(C(F)(F)F)c1 [Compound 11]
EC50 (P. falciparum 3D7 strain): 0.054 µM

N#Cc1cccc(C(=O)Nc2cc(N3CCC(N4CCCC4)CC3)cc(C(F)(F)F)c2)c1 [Compound 15]
EC50 (P. falciparum 3D7 strain): 0.402 µM

FC(F)(F)c1cccc(CNc2cc(N3CCC(N4CCCC4)CC3)cc(C(F)(F)F)c2)c1 [Compound 20]
EC50 (P. falciparum 3D7 strain): 1.98 µM

O=C(Nc1ccc(Cl)cc1)c1cc(N2CCC(N3CCCC3)CC2)cc(C(F)(F)F)c1 [Compound 7]
EC50 (P. falciparum 3D7 strain): 0.114 µM

O=C(Nc1cccc(Cl)c1)c1cc(N2CCC(N3CCCC3)CC2)cc(C(F)(F)F)c1 [Compound 8]
EC50 (P. falciparum W2 strain): 0.888 µM | shift in potency between 3D7 and W2 (P. falciparum W2 strain; W2 vs 3D7): ~6 fold | EC50 (P. falciparum 3D7 strain): 0.134 µM | AUC(0–5h)/dose [4]: 5.31 (min ug/mL)/(mg/kg) | AUC(0-t) [4]: 3.92 µM·h | Cmax at 5 h [4]: 1.35 µM | Tmax at 5 h [4]: 1 h

CC(C)(C)c1cc(C(=O)Nc2cccc(Cl)c2)nc(N2CCC(N3CCCC3)CC2)n1 [Compound 29]
EC50 (P. falciparum 3D7 strain): 2.08 µM

O=C(Nc1cccc(Cl)c1)c1cc(N2CCC(N3CCCCC3)CC2)cc(C(F)(F)F)c1 [Compound 30]
EC50 (P. falciparum W2 strain): 0.296 µM | EC50 (P. falciparum 3D7 strain): 0.082 µM | AUC(0–5h)/dose [4]: 6.10 (min ug/mL)/(mg/kg) | AUC(0-t) [4]: 4.37 µM·h | Cmax at 5 h [4]: 1.37 µM | Tmax at 5 h [4]: 1 h

O=C(Nc1cc(N2CCC(N3CCCC3)CC2)cc(C(F)(F)F)c1)c1cccc(C(F)(F)F)c1 [Compound 14]
EC50 (P. falciparum 3D7 strain): 0.201 µM | AUC(0–5h)/dose [4]: 6.94 (min ug/mL)/(mg/kg) | AUC(0-t) [4]: 4.77 µM·h | Cmax at 5 h [4]: 1.17 µM | Tmax at 5 h [4]: 3 h
